Data: ChEMBL document CHEMBL3046389, “Synthesis and biological evaluation of novel hydroquinone dimethyl ethers as potential anticancer and antimicrobial agents” (2013)

How the values were obtained:
Assay type in all cases: functional
NCI-H23 = assay: Growth inhibition of Homo sapiens (human) NCI-H23 cells at 10 uM after 48 hr by SRB assay; details: NCI-H23, 48 h, read-out: GI
SK-MEL-2 = assay: Growth inhibition of Homo sapiens (human) SK-MEL-2 cells at 10 uM after 48 hr by SRB assay; details: SK-MEL-2, 48 h, read-out: GI
SK-MEL-28 = assay: Growth inhibition of Homo sapiens (human) SK-MEL-28 cells at 10 uM after 48 hr by SRB assay; details: SK-MEL-28, 48 h, read-out: GI
NCI-H322M = assay: Growth inhibition of Homo sapiens (human) NCI-H322M cells at 10 uM after 48 hr by SRB assay; details: read-out: GI
MDA-MB-231 = assay: Growth inhibition of Homo sapiens (human) MDA-MB-231/ATCC cells at 10 uM after 48 hr by SRB assay; details: MDA-MB-231, 48 h, read-out: GI
OVCAR-5 = assay: Growth inhibition of Homo sapiens (human) OVCAR5 cells at 10 uM after 48 hr by SRB assay; details: OVCAR-5, 48 h, read-out: GI
A498 = assay: Growth inhibition of Homo sapiens (human) A498 cells at 10 uM after 48 hr by SRB assay; details: A498, 48 h, read-out: GI
UACC-257 = assay: Growth inhibition of Homo sapiens (human) UACC257 cells at 10 uM after 48 hr by SRB assay; details: UACC-257, 48 h, read-out: GI
HCT-116 = assay: Anticancer activity against Homo sapiens (human) HCT116 cells after 48 hr by SRB assay; details: HCT-116, 48 h; for CC50: read-out: LC50 (the source's name)
DU-145 = assay: Growth inhibition of Homo sapiens (human) DU145 cells at 10 uM after 48 hr by SRB assay; details: DU-145, 48 h, read-out: GI
NCI-H522 = assay: Growth inhibition of Homo sapiens (human) NCI-H522 cells at 10 uM after 48 hr by SRB assay; details: NCI-H522, 48 h, read-out: GI
CCRF-CEM = assay: Growth inhibition of Homo sapiens (human) CCRF-CEM cells at 10 uM after 48 hr by SRB assay; details: read-out: GI
SK-MEL-5 = assay: Growth inhibition of Homo sapiens (human) SK-MEL-5 cells at 10 uM after 48 hr by SRB assay; details: SK-MEL-5, 48 h, read-out: GI
CAKI-1 = assay: Growth inhibition of Homo sapiens (human) CAKI-1 cells at 10 uM after 48 hr by SRB assay; details: CAKI-1, 48 h, read-out: GI
EKVX = assay: Growth inhibition of Homo sapiens (human) EKVX cells at 10 uM after 48 hr by SRB assay; details: read-out: GI
RPMI-8226 = assay: Growth inhibition of Homo sapiens (human) RPMI8226 cells at 10 uM after 48 hr by SRB assay; details: RPMI-8226, 48 h, read-out: GI
OVCAR-4 = assay: Growth inhibition of Homo sapiens (human) OVCAR4 cells at 10 uM after 48 hr by SRB assay; details: OVCAR-4, 48 h, read-out: GI
NCI/ADR-RES = assay: Growth inhibition of Homo sapiens (human) NCI/ADR-RES cells at 10 uM after 48 hr by SRB assay; details: read-out: GI
COLO 205 = assay: Growth inhibition of Homo sapiens (human) COLO205 cells at 10 uM after 48 hr by SRB assay; details: COLO 205, 48 h, read-out: GI
T47D = assay: Anticancer activity against Homo sapiens (human) T47D cells after 48 hr by SRB assay; details: for CC50: read-out: LC50 (the source's name)
SF-268 = assay: Growth inhibition of Homo sapiens (human) SF268 cells at 10 uM after 48 hr by SRB assay; details: SF-268, 48 h, read-out: GI
NCI-H226 [1] = assay: Anticancer activity against Homo sapiens (human) NCI-H226 cells after 48 hr by SRB assay; details: NCI-H226, 48 h; for CC50: read-out: LC50 (the source's name)
NCI-H226 [2] = assay: Growth inhibition of Homo sapiens (human) NCI-H226 cells at 10 uM after 48 hr by SRB assay; details: NCI-H226, 48 h, read-out: GI
SR = assay: Growth inhibition of Homo sapiens (human) SR cells at 10 uM after 48 hr by SRB assay; details: read-out: GI

SMILES	inhibition of growth at 10 µM (NCI-H23) [%]	inhibition of growth at 10 µM (SK-MEL-2) [%]	inhibition of growth at 10 µM (SK-MEL-28) [%]	inhibition of growth at 10 µM (NCI-H322M) [%]	inhibition of growth at 10 µM (A498) [%]	inhibition of growth at 10 µM (UACC-257) [%]	GI50 (HCT-116) [nM]	TGI (HCT-116) [µM]	CC50 (HCT-116) [µM]	inhibition of growth at 10 µM (NCI-H522) [%]	inhibition of growth at 10 µM (CCRF-CEM) [%]	inhibition of growth at 10 µM (SK-MEL-5) [%]	inhibition of growth at 10 µM (CAKI-1) [%]	inhibition of growth at 10 µM (EKVX) [%]	inhibition of growth at 10 µM (RPMI-8226) [%]	inhibition of growth at 10 µM (OVCAR-4) [%]	inhibition of growth at 10 µM (NCI/ADR-RES) [%]	GI50 (T47D) [µM]	TGI (T47D) [µM]	CC50 (T47D) [µM]	further results
COc1ccc(OC)c(/C=C/C(=O)N/N=C/c2ccc(Cl)cc2)c1	65.2	77.7	61.2	58.7	87.5	47	75	3.05	> 100	136	86.3	69.4	58.2	56.9	78.7	59.8	96.2	0.16	> 100	> 100	inhibition of growth at 10 µM (MDA-MB-231): 71.9%; inhibition of growth at 10 µM (OVCAR-5): 71.6%; inhibition of growth at 10 µM (DU-145): 85.2%; inhibition of growth at 10 µM (COLO 205): 149%; inhibition of growth at 10 µM (SF-268): 66.8%; GI50 (NCI-H226 [1]): 0.979 µM; TGI (NCI-H226 [1]): > 100 µM; CC50 (NCI-H226 [1]): > 100 µM
COc1ccc(OC)c(/C=C/c2nnc(Nc3ccc(Cl)cc3)o2)c1				41.4			2970	13.1	> 100							116		2.54	> 100	> 100	inhibition of growth at 10 µM (NCI-H226 [2]): 43.9%
COc1ccc(OC)c(/C=C/C(=O)N/N=C/c2ccccc2)c1	34.9	101	34.5		61.3	48.7	2640	10.2	67.2	115	44.8	69.2	52.2	36	45.6		91.5	4.86	> 100	> 100	inhibition of growth at 10 µM (COLO 205): 57.2%; inhibition of growth at 10 µM (SF-268): 39.3%; GI50 (NCI-H226 [1]): 30.8 µM; TGI (NCI-H226 [1]): > 100 µM; CC50 (NCI-H226 [1]): > 100 µM
COc1ccc(OC)c(/C=C/c2nnc(S)n2-c2ccc(Cl)cc2)c1	51.3						4050	> 100	> 100		39.4							4.5	> 100	> 100	inhibition of growth at 10 µM (SR): 61.7%
